Measurements as given in ChEMBL document CHEMBL1201862, “PubChem BioAssay data set” (2004).
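In this assay, cells in 96-well plates receive the compound at five concentrations for 48 hours. Endpoints are linearly interpolated between the surrounding concentrations. GI50: concentration for 50% inhibition of growth.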 Activity calls are given as the source filed them. Cut-off read from the data, not from the text of the source: active = GI50 up to about 1.1 µM and inactive = higher.

Legend:
Assay in all cases: NCI tumour cell line growth inhibition, 48 h
U-251 = system: U-251
HOP-62 = system: HOP-62
NCI-H23 = system: NCI-H23
T47D = system: T47D
HL-60 = system: HL-60
SK-MEL-28 = system: SK-MEL-28
NCI-H226 = system: NCI-H226
RXF 393 = system: RXF 393
HCT-15 = system: HCT-15
EKVX = system: EKVX
SR = system: SR
SK-MEL-2 = system: SK-MEL-2
SK-MEL-5 = system: SK-MEL-5
SK-OV-3 = system: SK-OV-3
SNB-19 = system: SNB-19
HCT-116 = system: HCT-116
HOP-92 = system: HOP-92
HT-29 = system: HT-29
UACC-257 = system: UACC-257
SNB-75 = system: SNB-75
LOX IMVI = system: LOX IMVI
786-0 = system: 786-0
COLO 205 = system: COLO 205
Malme-3M = system: Malme-3M
BT-549 = system: BT-549
MCF7 = system: MCF7
DU-145 = system: DU-145
A498 = system: A498
SF-268 = system: SF-268
OVCAR-3 = system: OVCAR-3
UACC-62 = system: UACC-62
SW-620 = system: SW-620
ACHN = system: ACHN
A549 = system: A549
KM12 = system: KM12
SF-295 = system: SF-295
OVCAR-4 = system: OVCAR-4
NCI/ADR-RES = system: NCI/ADR-RES
MOLT-4 = system: MOLT-4
MDA-MB-435 = system: MDA-MB-435
OVCAR-5 = system: OVCAR-5
CAKI-1 = system: CAKI-1
MDA-N = system: MDA-N
SF-539 = system: SF-539
MDA-MB-231 = system: MDA-MB-231
Hs-578T = system: Hs-578T
NCI-H460 = system: NCI-H460
NCI-H522 = system: NCI-H522
CCRF-CEM = system: CCRF-CEM
K562 = system: K562
M14 = system: M14
SN12C = system: SN12C
HCC 2998 = system: HCC 2998
PC-3 = system: PC-3
OVCAR-8 = system: OVCAR-8
TK-10 = system: TK-10
UO-31 = system: UO-31
RPMI-8226 = system: RPMI-8226
IGROV-1 = system: IGROV-1

CCOc1ccc2c(c1)C(/C(C(Cl)=C(Cl)Cl)=[N+](/[O-])OC(=O)c1ccccc1)=N2
GI50 (U-251): 46.7 µM (inactive) | GI50 (HOP-62): 65.8 µM (inactive) | GI50 (NCI-H23): 48.6 µM (inactive) | GI50 (T47D): 26 µM (inactive) | GI50 (HL-60): 33.7 µM (inactive) | GI50 (SK-MEL-28): > 100 µM (inactive) | GI50 (NCI-H226): 37.3 µM (inactive) | GI50 (RXF 393): 47.8 µM (inactive) | GI50 (HCT-15): 50.2 µM | GI50 (EKVX): 15.4 µM (inactive) | GI50 (SR): 53.1 µM (inactive) | GI50 (SK-MEL-2): 85.9 µM (inactive) | GI50 (SK-MEL-5): 35.3 µM (inactive) | GI50 (SK-OV-3): > 100 µM (inactive) | GI50 (SNB-19): 93.1 µM (inactive) | GI50 (HCT-116): 46 µM (inactive) | GI50 (HOP-92): 38.1 µM (inactive) | GI50 (HT-29): 61.2 µM (inactive) | GI50 (UACC-257): 43.2 µM (inactive) | GI50 (SNB-75): 56.8 µM (inactive) | GI50 (LOX IMVI): 57.9 µM (inactive) | GI50 (786-0): 72.4 µM (inactive) | GI50 (COLO 205): 40.1 µM (inactive) | GI50 (Malme-3M): > 100 µM (inactive) | GI50 (BT-549): 25.4 µM (inactive) | GI50 (MCF7): 39 µM (inactive) | GI50 (DU-145): 47.2 µM (inactive) | GI50 (A498): > 100 µM (inactive) | GI50 (SF-268): 44.5 µM (inactive) | GI50 (OVCAR-3): 30.8 µM (inactive) | GI50 (UACC-62): 77.6 µM (inactive) | GI50 (SW-620): 65.8 µM (inactive) | GI50 (ACHN): 73.1 µM (inactive) | GI50 (A549): 47 µM (inactive) | GI50 (KM12): 35.9 µM (inactive) | GI50 (SF-295): 49.7 µM (inactive) | GI50 (OVCAR-4): 23 µM (inactive) | GI50 (NCI/ADR-RES): 57.3 µM (inactive) | GI50 (MOLT-4): 39 µM (inactive) | GI50 (MDA-MB-435): 29.6 µM (inactive) | GI50 (OVCAR-5): 76.4 µM (inactive) | GI50 (CAKI-1): 32.6 µM (inactive) | GI50 (MDA-N): 37 µM (inactive) | GI50 (SF-539): 79.3 µM (inactive) | GI50 (MDA-MB-231): 45.7 µM (inactive) | GI50 (Hs-578T): 52.8 µM (inactive) | GI50 (NCI-H460): 76 µM (inactive) | GI50 (NCI-H522): 35.2 µM (inactive) | GI50 (CCRF-CEM): 36.9 µM (inactive) | GI50 (K562): 38.7 µM (inactive) | GI50 (M14): 58.7 µM (inactive) | GI50 (SN12C): 78.9 µM (inactive) | GI50 (HCC 2998): 59.2 µM (inactive) | GI50 (PC-3): 30.9 µM (inactive) | GI50 (OVCAR-8): 72.8 µM (inactive) | GI50 (TK-10): 99.3 µM (inactive) | GI50 (UO-31): > 100 µM (inactive)

CC(C)(C)c1ccc(-c2nc3ccc(Cl)cc3c(=O)o2)cc1
GI50 (U-251): 12.6 µM (inactive) | GI50 (HOP-62): 20.9 µM (inactive) | GI50 (NCI-H23): 11.4 µM (inactive) | GI50 (T47D): 20.5 µM (inactive) | GI50 (HL-60): 19.4 µM (inactive) | GI50 (SK-MEL-28): 21.3 µM (inactive) | GI50 (RXF 393): 39.1 µM (inactive) | GI50 (HCT-15): 13.9 µM | GI50 (EKVX): 20.6 µM (inactive) | GI50 (SR): 16.4 µM (inactive) | GI50 (SK-MEL-2): 18.5 µM (inactive) | GI50 (SK-MEL-5): 12.8 µM (inactive) | GI50 (SK-OV-3): 18.4 µM (inactive) | GI50 (SNB-19): 14.5 µM (inactive) | GI50 (HCT-116): 15.6 µM (inactive) | GI50 (HOP-92): 11.9 µM (inactive) | GI50 (HT-29): 23.1 µM (inactive) | GI50 (UACC-257): 31.2 µM (inactive) | GI50 (SNB-75): 26.8 µM (inactive) | GI50 (LOX IMVI): 15.4 µM (inactive) | GI50 (786-0): 36.6 µM (inactive) | GI50 (COLO 205): 17.7 µM (inactive) | GI50 (Malme-3M): 16.6 µM (inactive) | GI50 (BT-549): 21.2 µM (inactive) | GI50 (MCF7): 25 µM (inactive) | GI50 (DU-145): 25.4 µM (inactive) | GI50 (A498): 23.4 µM (inactive) | GI50 (SF-268): 22 µM (inactive) | GI50 (OVCAR-3): 7.78 µM (inactive) | GI50 (UACC-62): 18.8 µM (inactive) | GI50 (SW-620): 26.4 µM (inactive) | GI50 (ACHN): 14.1 µM (inactive) | GI50 (A549): 11.9 µM (inactive) | GI50 (KM12): 5.12 µM (inactive) | GI50 (SF-295): 13 µM (inactive) | GI50 (OVCAR-4): 20.5 µM (inactive) | GI50 (NCI/ADR-RES): 22.7 µM (inactive) | GI50 (MOLT-4): 16.9 µM (inactive) | GI50 (MDA-MB-435): 24.1 µM (inactive) | GI50 (OVCAR-5): 25.1 µM (inactive) | GI50 (CAKI-1): 25.4 µM (inactive) | GI50 (MDA-N): 25.2 µM (inactive) | GI50 (SF-539): 14.7 µM (inactive) | GI50 (MDA-MB-231): 0.324 µM (active) | GI50 (Hs-578T): 30.5 µM (inactive) | GI50 (NCI-H460): 26.2 µM (inactive) | GI50 (NCI-H522): 12.7 µM (inactive) | GI50 (CCRF-CEM): 14.8 µM (inactive) | GI50 (RPMI-8226): 19.6 µM (inactive) | GI50 (K562): 15.8 µM (inactive) | GI50 (M14): 17.9 µM (inactive) | GI50 (SN12C): 27.1 µM (inactive) | GI50 (HCC 2998): 12.8 µM (inactive) | GI50 (PC-3): 21.5 µM (inactive) | GI50 (OVCAR-8): 14.5 µM (inactive) | GI50 (TK-10): 41.3 µM (inactive) | GI50 (UO-31): 21.2 µM (inactive) | GI50 (IGROV-1): 18.2 µM (inactive)

Cc1nc(-c2cc3cc(Cl)ccc3oc2=O)cc2c1c(=O)oc1ccc(Cl)cc12
GI50 (U-251): > 100 µM (inactive) | GI50 (HOP-62): > 100 µM (inactive) | GI50 (NCI-H23): > 100 µM (inactive) | GI50 (T47D): > 100 µM (inactive) | GI50 (HL-60): > 100 µM (inactive) | GI50 (SK-MEL-28): > 100 µM (inactive) | GI50 (NCI-H226): > 100 µM (inactive) | GI50 (RXF 393): > 100 µM (inactive) | GI50 (HCT-15): > 100 µM | GI50 (EKVX): > 100 µM (inactive) | GI50 (SR): > 100 µM (inactive) | GI50 (SK-MEL-2): > 100 µM (inactive) | GI50 (SK-MEL-5): > 100 µM (inactive) | GI50 (SK-OV-3): > 100 µM (inactive) | GI50 (SNB-19): > 100 µM (inactive) | GI50 (HCT-116): > 100 µM (inactive) | GI50 (HOP-92): > 100 µM (inactive) | GI50 (HT-29): > 100 µM (inactive) | GI50 (UACC-257): > 100 µM (inactive) | GI50 (LOX IMVI): > 100 µM (inactive) | GI50 (786-0): > 100 µM (inactive) | GI50 (COLO 205): > 100 µM (inactive) | GI50 (BT-549): > 100 µM (inactive) | GI50 (MCF7): > 100 µM (inactive) | GI50 (DU-145): > 100 µM (inactive) | GI50 (A498): > 100 µM (inactive) | GI50 (SF-268): > 100 µM (inactive) | GI50 (OVCAR-3): > 100 µM (inactive) | GI50 (UACC-62): > 100 µM (inactive) | GI50 (SW-620): > 100 µM (inactive) | GI50 (ACHN): > 100 µM (inactive) | GI50 (A549): > 100 µM (inactive) | GI50 (KM12): > 100 µM (inactive) | GI50 (SF-295): > 100 µM (inactive) | GI50 (NCI/ADR-RES): > 100 µM (inactive) | GI50 (MOLT-4): > 100 µM (inactive) | GI50 (MDA-MB-435): > 100 µM (inactive) | GI50 (MDA-N): > 100 µM (inactive) | GI50 (MDA-MB-231): > 100 µM (inactive) | GI50 (Hs-578T): 72.3 µM (inactive) | GI50 (NCI-H460): > 100 µM (inactive) | GI50 (NCI-H522): 70.3 µM (inactive) | GI50 (CCRF-CEM): > 100 µM (inactive) | GI50 (RPMI-8226): > 100 µM (inactive) | GI50 (K562): > 100 µM (inactive) | GI50 (M14): > 100 µM (inactive) | GI50 (SN12C): > 100 µM (inactive) | GI50 (HCC 2998): > 100 µM (inactive) | GI50 (PC-3): > 100 µM (inactive) | GI50 (OVCAR-8): > 100 µM (inactive) | GI50 (TK-10): > 100 µM (inactive) | GI50 (UO-31): > 100 µM (inactive) | GI50 (IGROV-1): > 100 µM (inactive)
